Test results: paper PMC11671526, “β-caryophyllene sensitizes hepatocellular carcinoma cells to chemotherapeutics and inhibits cell malignancy through targeting MAPK signaling pathway” (Frontiers in Pharmacology, 2024)

Experiments:
HepG2 cells = assay: CCK8 viability of cells infected by pSL4-Flag vector or pSL4-Flag-PGF lentivirus; format: cell-based; settings: Homo sapiens, HepG2, 48 h
Protocol: (§1) Cell viability assay using the CCK8 reagent (Bimake, Shanghai, China) was conducted according to the manufacturer’s instructions. The cell proliferation data were used to calculate the cell viability. Briefly, HepG2, SMMC-7721, and HL-7702 cells with a density of 5 × 10^3 cells/well were seeded into each well of 96-well plates and incubated overnight. […] After 48 h, 10 µL of CCK8 reagent was added to each well, followed by 2 h incubation at 37°C and measurement of absorbance at 450 nm using a microplate reader (Molecular Devices, LLC.). The cell viability percentage of all compounds or their combinations at certain concentrations during the treatment period was evaluated by normalizing absorbance at 450 nm to that of vehicle controls. The half maximal inhibitory concentrations (IC50) values were calculated using the GraphPad Prism 8 software.
(§2) The placental growth factor (PGF) coding sequence was amplified using gene specific primers and then subcloned into a lentiviral vector pSL4-Flag expressing the puromycin resistance gene to generate pSL4-Flag-PGF vector with a CMV promoter driving PGF expression. The primers used to amplify the PGF coding sequence, check the amplified DNA fragment and verify its ectopic expression are listed in Supplementary Table S1. Lentiviruses carrying pSL4-Flag-PGF and an empty pSL4-Flag vector were produced and used to infect HCC cells based on our previously reported procedure ([Wan et al., 2012]). Ectopic PGF expression was achieved by infecting HCC cells with pSL4-Flag-PGF lentivirus, and the control cells were produced by infecting HCC cells using lentivirus carrying the empty pSL4-Flag-vector.

SMMC-7721 cells = assay: as above; format: cell-based; settings: Homo sapiens
Protocol: as §1, §2

Q: For `C=C1CC/C=C(\C)CC[C@@H]2[C@@H]1CC2(C)C` [BCP, β-caryophyllene], which IC50 (HepG2 cells; HepG2 cells carrying empty vector) is on record?
A: 178 µM

Q: And the IC50 (HepG2 cells; HepG2 cells expressing Flag-PGF)?
A: 284 µM

Q: And the IC50 (SMMC-7721 cells; SMMC-7721, SMMC-7721 cells carrying empty vector)?
A: 318 µM

Q: What about the IC50 (SMMC-7721 cells; SMMC-7721, SMMC-7721 cells expressing Flag-PGF) of the same compound?
A: 405 µM
